Test [1] addresses human SOS1 (loading of human K-Ras^G12C-GDP with fluorescent GTP-analog) (Homo sapiens, UniProt Q07889). The experiment in a line: Biochemical assay 3: K-Ras^G12C activation assay by hSOS1 (HTRF). The settings on record: read-out: Assay 3 (KRAS-Activation by SOS no GTP) activity expressed as % inhibition at 20 μM; no GTP; at 20 μM. The text has this:
Biochemical assay 3: K-Ras^G12C Activation Assay by hSOS1
K-Ras is a small GTPase that can bind GDP and GTP. The guanine nucleotide exchange factor SOS catalyzes the activation of K-Ras by promoting the exchange of GDP to GTP. SOS binds to K-Ras-GDP thereby opening the GDP-binding pocket to facilitate GDP release. Rebinding of excess nucleotide leads to dissociation of the K-Ras-SOS intermediate complex leaving K-Ras loaded with the nucleotide.
This assay quantifies human SOS1-mediated loading of human K-Ras^G12C-GDP with a fluorescent GTP-analog. Detection of successful loading is achieved by measuring homogenous time-resolved fluorescence resonance energy transfer (HTRF) from antiGST-Terbium (FRET donor) bound to GST-K-RasG12C to the loaded fluorescent GTP analog (FRET-acceptor).
The fluorescent GTP-analog EDA-GTP-Dy647P1 (2′/3′-O-(2-Aminoethyl-carbamoyl)-guanosine-5′-triphosphate labelled with Dy647P1 (Dyomics GmbH, Germany)) was synthesized by Jena Biosciences GmbH (Germany) and supplied as a 1 mM aqueous solution.
(§1) The assay buffer contained 10 mM HEPES pH 7.4 (Applichem), 150 mM NaCl (Sigma), 5 mM MgCl2 (Sigma), 1 mM DTT (Thermofisher), 0.05% BSA Fraction V, pH 7.0, (ICN Biomedicals), 0.0025% (v/v) Igepal (Sigma).
Concentrations of protein batches used were optimized to be within the linear range of the HTRF signal. A Ras working solution was prepared in assay buffer containing typically 100 nM GST-hK-RasG12C and 2 nM antiGST-Tb (Cisbio, France). A hSOS1 working solution was prepared in assay buffer containing typically 20 nM hSOS1 and 200 nM EDA-GTP-Dy647P1. An inhibitor control solution was prepared in assay buffer containing 200 nM EDA-GTP-Dy647P1 without hSOS1.
(§2) Fifty nl of a 100-fold concentrated solution of the test compound in DMSO were transferred into a black microtiter test plate (384 or 1536, Greiner Bio-One, Germany). For this, either a Hummingbird liquid handler (Digilab, MA, USA) or an Echo acoustic system (Labcyte, CA, USA) was used.
All steps of the assay were performed at 20° C. A volume of 2.5 μl of the Ras working solution was added to all wells of the test plate using a Multidrop dispenser (Thermo Labsystems). After 10 min preincubation, 2.5 μl of the hSOS1 working solution were added to all wells except for those wells at the side of the test plate that were subsequently filled with 2.5 μl of the inhibitor control solution. After 30 min incubation the fluorescence was measured with a Pherastar (BMG, Germany) using the HTRF module (excitation 337 nm, emission 1: 620 nm, emission 2: 665 nm).
(§3) IC50 values were calculated by 4-Parameter fitting using a commercial software package (Genedata Screener, Switzerland).
Background: In TR-FRET formats the signal depends on donor and acceptor labels being close together.

The target in test [2] is human SOS1 (nucleotide exchange of K-Ras^G12C) (Homo sapiens, UniProt Q07889). The experiment in a line: Biochemical assay 2: K-Ras^G12C activation assay by hSOS1 at high GTP concentration (HTRF). Particulars: read-out: Assay 2 (KRAS-Activation by SOS high GTP) activity expressed as % inhibition at 20 μM; high GTP; at 20 μM.
From the text: Biochemical Assay 2: K-Ras^G12C Activation Assay by hSOS1 at High GTP Concentration
This assay quantifies human SOS1-mediated nucleotide exchange of K-Ras^G12C preloaded with a fluorescent […] and in presence of an excess of free GTP. Loaded hK-Ras^G12C generates a high HTRF-signal by energy transfer from antiGST-Terbium (FRET donor) bound to K-Ras to the loaded fluorescent GDP analog (FRET-acceptor). SOS1 activity exchanges the fluorescent GDP for non-fluorescent GTP and therefore leads to a reduction of the HTRF signal.
The fluorescent GDP-analog EDA-GDP-Dy647P1 (2′/3′-O-(2-Aminoethyl-carbamoyl)-guanosine-5′-diphosphate labelled with Dy647P1 (Dyomics GmbH, Germany)) was synthesized by Jena Biosciences GmbH (Germany) and supplied as a 1 mM aqueous solution.
Concentrations of protein batches used were optimized to be within the linear range of the HTRF signal.
Preparation of GST-tagged hK-Ras^Gl2C loaded with fluorescent nucleotide was performed as follows: incubation of 11.5 μM hK-Ras^Gl2C with 5-fold excess GDP-Dy647 nucleotide (54 μM) in 500 μl NLS-buffer (RAS activation Kit Jena Bioscience, Kat. #PR-950) for 10 min at 37° C. Addition of 20 μl 1 M MgCl2 (Sigma) to final 40 mM and store on ice. Purification into buffer (10 mM HEPES pH 7.4 (Applichem), 150 mM NaCl (Sigma), 5 mM MgCl2 (Sigma)) by use of a PD-Minitrap desalting column (GE Healthcare). Concentration of 1 ml purified hK-Ras-GDP-Dy647 is approx. 4-5 μM.
as §1
A Ras working solution was prepared in assay buffer containing typically 80 nM loaded GST-hK-RasG12C-EDA-GDP-Dy647P1 and 2 nM antiGST-Tb (Cisbio, France). A hSOS1 working solution was prepared in assay buffer containing typically 8 nM His-hSOS1 and 100 μM GTP (Jena Bioscience, Germany). An inhibitor control solution was prepared in assay buffer containing the same concentration of […].
as §2
All steps of the assay were performed at 20° C. A volume of 2.5 μl of the Ras working solution was added to all wells of the test plate using a Multidrop dispenser (Thermo Labsystems). After 2 min preincubation, 2.5 μl of the hSOS1 working solution were added to all wells except for those wells at the side of the test plate that were subsequently filled with 2.5 μl of the inhibitor control solution. After 20 min incubation the fluorescence was measured with a Pherastar (BMG, Germany) using the HTRF module (excitation 337 nm, emission 1: 620 nm, emission 2: 665 nm).
as §3

Drawing on patent US20240083857A1, “2-Methyl-Quinazolines” (Bayer Pharma Aktiengesellschaft, priority 2017, published 2024), this text covers inhibition for 18 compounds.

As usually defined, the inhibition is the percentage by which the read-out fell short of the control.

For `COc1cc2nc(C)nc(N[C@@H](C)c3ccc(-c4cncnc4)s3)c2cc1OC` (stereo in doubt) [Example 42, 6,7-dimethoxy-2-methyl-N-{1-[5-(pyrimidin-5-yl)thiophen-2-yl]ethyl}quinazolin-4-amine], the inhibition at 20 µM in test [1] came out at 48%.

Take `COc1cc2nc(C)nc(N[C@@H](C)c3ccc(-c4ccc(C(=O)N(C)C)cc4)s3)c2cc1OC` (stereo in doubt) [Example 176, 4-(5-{1-[(6,7-dimethoxy-2-methylquinazolin-4-yl)amino]ethyl}thiophen-2-yl)-N,N-dimethylbenzamide]: the inhibition at 20 µM in test [1] was found to be 42%.

As to `COc1cc2nc(C)nc(N[C@@H](C)c3ccc(-c4ccc(CO)s4)s3)c2cc1OC` (stereo in doubt) [Example 52, (5′-{1-[(6,7-dimethoxy-2-methylquinazolin-4-yl)amino]ethyl}-2,2′-bithiophen-5-yl)methanol], the inhibition at 20 µM in test [1] worked out at 43%.

In the case of `COCc1ccccc1-c1ccc([C@H](C)Nc2nc(C)nc3cc(OC)c(OC)cc23)s1` (stereo in doubt) [Example 50, 6,7-dimethoxy-N-[1-{5-[2-(methoxymethyl)phenyl]thiophen-2-yl}ethyl]-2-methylquinazolin-4-amine], the inhibition at 20 µM in test [1] is 23%.

Regarding `COc1cc2nc(C)nc(N[C@@H](C)c3ccc(-c4cccc(C(=O)N(C)C)c4)s3)c2cc1OC` (stereo in doubt) [Example 51, 3-(5-{1-[(6,7-dimethoxy-2-methylquinazolin-4-yl)amino]ethyl}thiophen-2-yl)-N,N-dimethylbenzamide], in test [1], the inhibition at 20 µM came to 52%.

Take `COc1cc2nc(C)nc(N[C@@H](C)c3ccc(-c4cccc(NS(C)(=O)=O)c4)s3)c2cc1OC` (stereo in doubt) [Example 165, N-[3-(5-{1-[(6,7-dimethoxy-2-methylquinazolin-4-yl)amino]ethyl}thiophen-2-yl)phenyl]methanesulfonamide]: in test [1], the inhibition at 20 µM turned out to be 32%.

Regarding `COc1cc2nc(C)nc(N[C@@H](C)c3ccc(-c4ccc5c(ccn5C)c4)s3)c2cc1OC` (stereo in doubt) [Example 49, 6,7-dimethoxy-2-methyl-N-{1-[5-{1-methyl-1H-indol-5-yl)thiophen-2-yl]ethyl}quinazolin-4-amine], the inhibition at 20 µM came out at 35% in test [2] and 36% in test [1].

As for `COc1cc2nc(C)nc(N[C@@H](C)c3ccc(-c4cccc(C(F)(F)F)c4)s3)c2cc1OC` (stereo in doubt) [Example 168, 6,7-dimethoxy-2-methyl-N-[1-{5-[3-(trifluoromethyl)phenyl]thiophen-2-yl}ethyl]quinazolin-4-amine], the values for the inhibition at 20 µM in test [2] and in test [1] were 38% and 32%, respectively.

On to `COc1cc2nc(C)nc(N[C@@H](C)c3ccc(-c4ccc5c(c4)OCCO5)s3)c2cc1OC` (stereo in doubt) [Example 98, N-{1-[5-(2,3-dihydro-1,4-benzodioxin-6-yl)thiophen-2-yl]ethyl}-6,7-dimethoxy-2-methylquinazolin-4-amine], for which the inhibition at 20 µM in test [2] was found to be 43%; in test [1] it was 24%.

Take `COc1cc2nc(C)nc(N[C@@H](C)c3ccc(-c4ccc(CNS(C)(=O)=O)cc4)s3)c2cc1OC` (stereo in doubt) [Example 140, N-[4-(5-{1-[(6,7-dimethoxy-2-methylquinazolin-4-yl)amino]ethyl}thiophen-2-yl)benzyl]methanesulfonamide]: the inhibition at 20 µM in test [1] came out at 33%.

With `COc1cc2nc(C)nc(N[C@@H](C)c3ccc(-c4ccc(-c5nnc(C)o5)cc4)s3)c2cc1OC` (stereo in doubt) [Example 128, 6,7-dimethoxy-2-methyl-N-[1-{5-[4-(5-methyl-1,3,4-oxadiazol-2-yl)phenyl]thiophen-2-yl}ethyl]quinazolin-4-amine], in test [1], the inhibition at 20 µM worked out at 16%.

Take `COc1cccc(-c2ccc([C@H](C)Nc3nc(C)nc4cc(OC)c(OC)cc34)s2)c1` (stereo in doubt) [Example 167, 6,7-dimethoxy-N-{1-[5-(3-methoxyphenyl)thiophen-2-yl]ethyl}-2-methylquinazolin-4-amine]: the values for the inhibition at 20 µM in test [2] and in test [1] were 40% and 37%, respectively.

With `COc1cc2nc(C)nc(N[C@@H](C)c3ccc(-c4ccc(CNC(C)=O)cc4)s3)c2cc1OC` (stereo in doubt) [Example 138, N-[4-(5-{1-[(6,7-dimethoxy-2-methylquinazolin-4-yl)amino]ethyl}thiophen-2-yl)benzyl)acetamide], the inhibition at 20 µM in test [1] was determined as 40%.

`COc1cc2nc(C)nc(N[C@@H](C)c3ccc(-c4cccc(S(C)(=O)=O)c4)s3)c2cc1OC` (stereo in doubt) [Example 173, 6,7-dimethoxy-2-methyl-N-[1-{5-[3-(methylsulfonyl)phenyl]thiophen-2-yl}ethyl]quinazolin-4-amine]: in test [1], the inhibition at 20 µM is 48%.

Regarding `COc1cc2nc(C)nc(N[C@@H](C)c3ccc(-c4ccc(S(C)(=O)=O)cc4)s3)c2cc1OC` (stereo in doubt) [Example 149, 6,7-dimethoxy-2-methyl-N-[1-{5-[4-(methylsulfonyl)phenyl]thiophen-2-yl}ethyl]quinazolin-4-amine], the inhibition at 20 µM in test [1] came to 17%.

On to `COc1cc2nc(C)nc(N[C@@H](C)c3ccc(-c4cccc(OC(F)(F)F)c4)s3)c2cc1OC` (stereo in doubt) [Example 151, 6,7-dimethoxy-2-methyl-N-[1-{5-[3-(trifluoromethoxy)phenyl]thiophen-2-yl}ethyl]quinazolin-4-amine], for which, in test [2], the inhibition at 20 µM stood at 51%.

As to `COc1cc2nc(C)nc(N[C@@H](C)c3ccc(-c4cccc(CNS(C)(=O)=O)c4)s3)c2cc1OC` (stereo in doubt) [Example 139, N-[3-(5-{1-[(6,7-dimethoxy-2-methylquinazolin-4-yl)amino]ethyl}thiophen-2-yl)benzyl]methanesulfonamide], the inhibition at 20 µM in test [1] was 41%.

Regarding `CCCNC(=O)c1ccc(-c2ccc([C@H](C)Nc3nc(C)nc4cc(OC)c(OC)cc34)s2)cc1` (stereo in doubt) [Example 141, 4-(5-{1-[(6,7-dimethoxy-2-methylquinazolin-4-yl)amino]ethyl}thiophen-2-yl)-N-propylbenzamide], the inhibition at 20 µM in test [2] was 25%.
